Earlier results as cited in paper PMC8342870 (International Journal of Biological Macromolecules, 2021).

Biological target: SARS-CoV-2 PLpro (Severe acute respiratory syndrome coronavirus 2, UniProt P0DTD1)
Details: previous work ref 29

CN1C[C@H](C(=O)N[C@]2(C)O[C@@]3(O)[C@@H]4CCCN4C(=O)[C@H](Cc4ccccc4)N3C2=O)C=C2c3cccc4[nH]cc(c34)C[C@H]21 [ergotamine]
reported rigid docking score: -9.2 kcal/mol
